Measured values as given in patent US20090181003A1, “Regulation of S6 Kinsase Protein Activity and Related Methods” (priority 2005, published 2009).

Tests used:
S6K1 K516 acetylation = S6K1 K516 acetylation in serum-stimulated NIH 3T3 cells treated with signal transduction inhibitors (Ac-K516 immunoblot); format: cell-based; conditions: 50 nM Rapamycin, 20 μM LY294002 or 10 μM PD98059 30 minutes before serum stimulation, lysed after 1 hr
Method: In this study, NIN3T3 cells were starved and stimulated with serum for various period of time. Total cell lysates were separated by SDS-PAGE and immunoblotted with acetyl-K516 antibodies. In FIG. 10B, the effect of various cell signalling inhibitors on K516 acetylation is shown. In this study, NIH3T3 cells were starved and treated with 50 nM Rapamycin (mTor inhibitor), 20 μM LY294002 (phosphatidylinositol 3′-kinase inhibitor), 10 μM PD98059 (MAP kinase inhibitor) or vehicle alone thirty minutes before stimulation with serum. Then, cells were stimulated with serum for one hour and lysed. The supernatants of total lysates were separated by SDS-PAGE and Western blotted with acetyl-K516 antibodies. […] The wtS6K and K516R mutants were transiently expressed in Hek293 cells. Immunoprecipitated recombinant S6Ks and total cell lysates were resolved by gel electrophoresis and immunoblotted with antibodies specific for EE tag, pT412 and actin.
Furthermore, the effect of signal transduction inhibitors on K516 acetylation was studied in NIH 3T3 cell. In this experiment, cells were serum starved and treated with rapamycin, LY and PD for 30 minutes before serum stimulation. Cells were lysed 1 hr hour after stimulation and the lysates separated by SDS-PAGE and immunoblotted with Ac-K516, pT412 antibodies.

S6 kinases = assay: S6 kinase acetylation in HEK 293 cells cotransfected with EE-tagged S6 kinases and p300 (anti-acetylated lysine immunoblot); format: cell-based; conditions: HEK 293 cells with overexpressed p300; TSA 660 nM for 12 hours
Method: In FIG. 2A, recombinant S6 kinases were acetylated in vitro using the purified acetyltransferase domain of p300 or full length PCAF and ^14C-labelled acetyl CoA. Proteins were resolved by SDS-PAGE and acetylated proteins were analysed by phosphorimaging (Bio-rad). In FIG. 2B, recombinant S6K2 or GST were subject to in vitro acetylation reactions with p300 and 14C AcCoA. Recombinant PKB/Akt, PKCa, PDK1 and PI3K (p85a/p110a) were purified using baculovirus expression system. In vitro acetylation assay was carried out as previously described. In FIG. 2D, HEK 293 cells were transfected with S6 kinases in the absence or presence of Gal4-p300 as shown. Cells were treated with medium containing either solvent control or TSA to a final concentration of 660 nM for twelve hours prior to harvesting. Recombinant S6 kinases were immunoprecipitated using the EE-antibody and acetylated S6 kinase was detected by western blotting with polyclonal acetylated lysine antibodies (Upstate). The level of immunoprecipitated S6K1 and S6K2 was analysed by reprobing the membranes with specific antibodies. The expression of Gal4-p300 was tested in total lysates using anti-Gal4 antibodies.
In order to test whether S6 kinase proteins are subject to acetylation within cells, HEK 293 cells were cotransfected with EE-tagged S6 kinases and p300. […]

S6 kinase = S6 kinase activation in C2C12 myoblasts by western blotting (pT412, phospho-rpS6), TSA dose course; format: cell-based; conditions: 18 hours, doses of 500 nM TSA and above
Method: In FIG. 6A (upper panel), C2C12 myoblasts were treated for 18 hours with increasing concentrations of TSA or with the structurally unrelated HDAC inhibitor, sodium butyrate. Endogenous S6 kinase activity was assessed by western blotting against pT412 and against phosho-rpS6. In another experiment, C2C12 cells were treated with 1 μM TSA or control for the times shown and S6 kinase activity was measured by in vitro kinase assay using purified ribosomes as substrate (FIG. 6B). A representative autoradiograph is shown beneath the graph.
Since phosphorylation of multiple residues in S6 kinases has a potent effect on their kinase activity, it was interesting to see whether acetylation, an alternative post-translational modification, may also modulate the S6 kinase enzyme activity. Although kinase acetylation has not been described to date, there are examples of enzymes whose activity is regulated by p300-mediated acetylation, including Fen 1 (Hasan et al. (2001) Mol. Cell. 7, 1221-1231) and DNA polymerase beta (Hasan et al. (2002) Mol. Cell. 10, 1213-1222). In order to test whether S6 kinase acetylation may affect its kinase activity in vivo, C2C12 myoblasts were treated with a dose course of TSA. S6 kinase activation was analysed by western blotting with an antibody specific for phospho-threonine 412 and also with an antibody against the phosphorylated form of rpS6. […]

S6K = S6K activity after deacetylase inhibition in a range of cell types (western blot, immune complex kinase assay); format: cell-based
Method: (§1) (A) The cell lines indicated (see text) were treated with TSA and nicotinamide for eight hours. Following lysis, proteins were resolved by SDS-PAGE and western blots were probed as labelled to evaluate S6K activation. (B) MKOC cells (see text) were treated as in (A) and analysed by western blotting. S6K1 was also immunoprecipitated from lysates and subjected to immune complex kinase assay.
(§2) Histone deacetylase inhibitors downregulate S6K activity in a range of different cell types. In order to test the model that S6K acetylation may be playing a role in its de-activation, the effect of TSA on S6K activity was analysed in a number of cell types, some of which contain mutations in the pathways leading to S6K activation, thus affording a genetic analysis of this phenomenon. […] PC-3 is a PTEN-null prostate cancer cell line in which basal PKB and S6K activation is high due to deregulation of PI3K signalling. […] The MKOC cell line was derived from a renal tumour removed from a Tsc2^−/− mouse. Since these cells lack Tsc2, S6K activity is uncoupled from both PKB and the tuberous sclerosis complex heterodimer. […] It should be noted that, although the same trend (reduced S6K phosphorylation and activity following treatment with deacetylase inhibitors) is seen in all the cell lines tested, the magnitude of this effect does vary. […]

4EBP1 (target of mTOR) = assay: Phospho-4EBP1 blotting in MKOC cells; format: cell-based, mouse; conditions: TSA treatment
Method: as §1, §2

[1] = target: T1, recombinant purified S6K1 (Homo sapiens, UniProt P23443); assay: In vitro kinase assay with recombinant purified S6K in presence or absence of deacetylase inhibitors; format: biochemical; conditions: presence or absence of TSA and nicotinamide
T1 construct: made in house; host or cells: insect cells (baculovirus)
T1 sequence (P23443 whole entry): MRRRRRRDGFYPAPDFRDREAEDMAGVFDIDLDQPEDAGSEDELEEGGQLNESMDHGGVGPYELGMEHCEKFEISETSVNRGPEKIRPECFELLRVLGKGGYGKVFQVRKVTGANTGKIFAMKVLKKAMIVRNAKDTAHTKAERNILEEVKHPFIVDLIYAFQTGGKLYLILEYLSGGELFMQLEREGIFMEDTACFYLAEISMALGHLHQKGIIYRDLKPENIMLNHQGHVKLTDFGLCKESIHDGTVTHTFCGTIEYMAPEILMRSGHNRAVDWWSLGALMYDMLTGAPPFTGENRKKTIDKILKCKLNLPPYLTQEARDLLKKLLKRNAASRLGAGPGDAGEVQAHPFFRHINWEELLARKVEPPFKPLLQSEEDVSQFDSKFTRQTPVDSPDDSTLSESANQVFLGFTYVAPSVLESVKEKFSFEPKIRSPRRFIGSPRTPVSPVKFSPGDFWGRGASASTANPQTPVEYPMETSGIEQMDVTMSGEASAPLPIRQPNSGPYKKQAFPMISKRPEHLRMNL
Method: as §1
Firstly, that TSA is not a specific inhibitor of HDAC activity but that it is also a direct S6K inhibitor in the classical sense. […] In order to test the former explanation, that TSA is a direct S6K inhibitor, in vitro kinase assays were conducted using recombinant purified S6K in the presence or absence of TSA and nicotinamide (FIG. 6C).

## COc1cccc(-c2cc(=O)c3ccccc3o2)c1N [PD98059]
S6K1 K516 acetylation
  acetylation of S6K1 at K516: not affected

## CC(/C=C/C(=O)NO)=C\[C@@H](C)C(=O)c1ccc(N(C)C)cc1 [TSA, Trichostatin A]
S6 kinases
  level of S6 kinase acetylation: significantly increased
S6 kinase
  S6 kinase activation (phospho-threonine 412 and S6 protein phosphorylation): potently inhibited
S6K; MKOC cells (Tsc2-/- mouse renal tumour)
  S6K activity: reduction of S6K activity
S6K; PC-3 cells (PTEN-null prostate cancer cell line)
  S6K activity: inhibited
4EBP1 (target of mTOR)
  phospho-4EBP1 phosphorylation status: unaffected
[1]
  S6K activity in vitro (direct kinase inhibition): does not indicate that TSA inhibits S6K activity in vitro
